Our source for the IC50 values is patent US12421254B2, “KRAS modulators and uses thereof” (Quanta Therapeutics, Inc., priority 2023, dated 2025).

Where two headings read alike, the source gives them in different places. A value given as a limit tells only on which side of the number the result lay.

For test [1], the target named is GST-tagged KRAS-G12V (2-169) (Homo sapiens, UniProt P01116, G12V). Briefly: Nucleotide exchange assay (NEA), SOS-mediated, HTRF, KRAS G12V. The settings on record: Table 4; IC50 extracted at 90 min; 80 nM SOS. The test is classed as biochemical. The text has this:
(§1) This activity is tightly regulated by GTPase activating proteins (GAPs) and guanine nucleotide exchange factors (GEFs). GEFs, such as SOS1/2, activate Ras proteins by exchanging GDP for GTP, thus returning Ras to its active conformation (Simanshu, Nissley, & McCormick, 2017). […] Homogenous time resolved fluorescence (HTRF) was used to detect SOS-mediated binding of a fluorescent GTP analog, GTP-DY-647P1 (Jena Biosciences NU-820-647P1) to GST-tagged KRAS-G12D (2-169) or to GST-tagged KRAS-G12V (2-169, Reaction Biology, MSC-11-540).
(§2) GST-tagged KRAS-G12D (2-169) and anti-GST MAb Tb Cryptate Gold (CisBio 61GSTTLB) were diluted into assay buffer (20 mM HEPES, pH 7.3, 150 mM NaCl, 5 mM MgCl2, 0.05% BSA 0.0025% NP40, 1 mM DTT) to prepare a 2.5× donor solution. 5× compound was added to the protein mixture and incubated for 1 h at RT. 2.5× acceptor solution containing SOS1cat (564-1049, Reaction Biology MSC-11-502) and GTP-DY-647P1 were then added to the donor KRAS mixture such that the final concentration of the reaction contained 0.25 nM GST-tagged KRAS-G12D (2-169), 20 nM SOScat, and 150 nM GTP-DY-647P1. The reaction was monitored using at RT with the Envision multimode plate reader (Ex/Em 337/665, […]) up to 90 minutes at 5 minute intervals. To monitor KRAS-G12V SOS-mediated nucleotide exchange, 80 nM SOS was added to reaction instead of 20 nM. All other components were the same as previously described. Data was blanked to reactions without SOS1 and % inhibition was calculated such that DMSO only =0% and blank=100%. Curve fitting was done using a 4 parameter fit. Reported IC50 values were extracted at 30 min and 90 min for the KRAS-G12D and KRAS-G12V assays, respectively.
Background: In TR-FRET formats the signal depends on donor and acceptor labels being close together.

In test [2] the target is GST-tagged KRAS-G12D (2-169) (Homo sapiens, UniProt P01116, G12D). Briefly: Nucleotide exchange assay (NEA), SOS-mediated, HTRF, KRAS G12D. The class given is biochemical. To be noted: IC50 extracted at 30 min, 20 nM SOScat.
GST-tagged KRAS-G12D (2-169), sequence (P01116 2-169 isoform P01116-2 G12D): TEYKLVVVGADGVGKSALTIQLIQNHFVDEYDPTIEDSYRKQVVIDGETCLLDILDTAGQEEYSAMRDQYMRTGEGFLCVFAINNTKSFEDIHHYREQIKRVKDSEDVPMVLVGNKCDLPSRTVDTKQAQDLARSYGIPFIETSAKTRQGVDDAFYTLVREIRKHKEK
Description: as §1, §2
NEA KRAS G12D IC50 (uM) values of selected compounds are depicted in Table 2 with compounds having a value <0.01 uM as ++++; ≥0.01 uM to 0.1 uM as +++; ≥0.1 uM to 1 uM as ++; ≥1 uM to 20 uM as +; and ≥20 uM as NA.

Where [3] appears, read: Table 4, read-out: NEA G12D IC50.

GST-tagged KRAS-G12V (2-169), sequence (P01116 2-169 isoform P01116-2 G12V): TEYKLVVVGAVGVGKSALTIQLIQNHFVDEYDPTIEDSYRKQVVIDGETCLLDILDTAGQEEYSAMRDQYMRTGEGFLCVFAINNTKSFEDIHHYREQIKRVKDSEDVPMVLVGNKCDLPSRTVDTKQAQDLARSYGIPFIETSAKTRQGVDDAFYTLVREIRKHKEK

The term IC50 denotes the point on the concentration scale where inhibition reaches its midpoint. For `N#Cc1c(N)sc2c1C1(CC2)CN(c2nc(OCC3(CN4CCOCC4)CC3)nc(OC3COCC3O)n2)C1` (racemic) [Compound 77, 2-amino-1′-[4-[rac-(3S,4S)-4-hydroxytetrahydrofuran-3-yl]oxy-6-[[1-(morpholinomethyl)cyclopropyl]methoxy]-1,3,5-triazin-2-yl]spiro[5,6-dihydrocyclopenta[b]thiophene-4,3′-azetidine]-3-carbonitrile; 2,2,2-trifluoroacetic acid], the results for the IC50 in test [1] and in test [2] (setting [3]) were 100 to 1000 nM and 1 to 20 µM, respectively.

For the compound `CN(c1nc(OC[C@@]23CCCN2C[C@H](F)C3)nc(N2CC3(CCc4sc(N)c(C#N)c43)C2)n1)C1CCOC1` (stereo partly drawn) [Compound 36, 2-amino-1′-[4-[[(2R,8S)-2-fluoro-1,2,3,5,6,7-hexahydropyrrolizin-8-yl]methoxy]-6-[methyl(tetrahydrofuran-3-yl)amino]-1,3,5-triazin-2-yl]spiro[5,6-dihydrocyclopenta[b]thiophene-4,3′-azetidine]-3-carbonitrile], the figures for the IC50 in test [1] and in test [2] (setting [3]) were 100 to 1000 nM and 0.1 to 1 µM, respectively.

As to `N#Cc1c(N)sc2c1C1(CN(c3nc(OC[C@@]45CCCN4C[C@H](F)C5)nc(N4[C@H]5CC[C@@H]4[C@H](C#N)C5)n3)C1)SC2` (racemic) [Compound 279, 2-amino-1′-[4-[(1RS,2RS,4SR)-2-cyano-7-azabicyclo[2.2.1]heptan-7-yl]-6-[[(2R,8S)-2-fluoro-1,2,3,5,6,7-hexahydropyrrolizin-8-yl]methoxy]-1,3,5-triazin-2-yl]spiro[6H-thieno[3,4-b]thiophene-4,3′-azetidine]-3-carbonitrile], the IC50 in test [2] (setting [3]) is 0.1 to 1 µM.

On to `CCN(c1nc(OC[C@@H]2CC[C@@H]3CN(C)CCN32)nc(N2CC3(C2)SCc2sc(N)c(C#N)c23)n1)[C@H](C)c1cccnc1N` (mixture of isomers) [Compound 216, 1′-[4-[[(6SR,8aRS)-2-methyl-3,4,6,7,8,8a-hexahydro-1H-pyrrolo[1,2-a]pyrazin-6-yl]methoxy]-6-[[(1R)-1-(2-amino-3-pyridyl)ethyl]-ethyl-amino]-1,3,5-triazin-2-yl]-2-amino-spiro[6H-thieno[3,4-b]thiophene-4,3′-azetidine]-3-carbonitrile], for which the IC50 was under 10 nM in test [1] and 0.1 to 1 µM in test [2] (setting [3]).

As for `N#Cc1c(N)sc2c1C1(CN(c3nc(OC[C@@]45CCCN4C[C@H](F)C5)nc(N(CC(N)=O)C4(C#N)CC4)n3)C1)SC2` [Compound 266, 2-[[4-(2-amino-3-cyano-spiro[6H-thieno[3,4-b]thiophene-4,3′-azetidine]-1′-yl)-6-[[(2R,8S)-2-fluoro-1,2,3,5,6,7-hexahydropyrrolizin-8-yl]methoxy]-1,3,5-triazin-2-yl]-(1-cyanocyclopropyl)amino]acetamide], the IC50 is under 10 nM in test [1] and under 0.01 µM in test [2] (setting [3]).

As for `C[C@H](c1cccnc1N)N(CC(F)F)c1nc(OC[C@@H]2C[C@@H](F)CN2C)nc(N2CC3(C2)SCc2sc(N)c(C#N)c23)n1` [Compound 197, 2′-amino-1-(4-(((R)-1-(2-aminopyridin-3-yl)ethyl)(2,2-difluoroethyl)amino)-6-(((2S,4R)-4-fluoro-1-methylpyrrolidin-2-yl)methoxy)-1,3,5-triazin-2-yl)-6′H-spiro[azetidine-3,4′-thieno[3,4-b]thiophene]-3′-carbonitrile], the IC50 was under 10 nM in test [1] and under 0.01 µM in test [2] (setting [3]).

Turning to `CN(Cc1cnsc1)c1nc(OC[C@@]23CCCN2C[C@H](F)C3)nc(N2CC3(CCc4sc(N)c(C#N)c43)C2)n1` [Compound 147, 2-amino-1′-[4-[[(2R,8S)-2-fluoro-1,2,3,5,6,7-hexahydropyrrolizin-8-yl]methoxy]-6-[isothiazol-4-ylmethyl(methyl)amino]-1,3,5-triazin-2-yl]spiro[5,6-dihydrocyclopenta[b]thiophene-4,3′-azetidine]-3-carbonitrile], the IC50 lay within 10 to 100 nM in test [1] and 0.1 to 1 µM in test [2] (setting [3]).

Turning to `N#Cc1c(N)sc2c1C1(CC2)CN(c2nc(OC[C@@]34CCCN3C[C@H](F)C4)nc(N(CCO)Cc3c[nH]nc3Cl)n2)C1` [Compound 151, 2-amino-1′-[4-[(3-chloro-1H-pyrazol-4-yl)methyl-(2-hydroxyethyl)amino]-6-[[(2R,8S)-2-fluoro-1,2,3,5,6,7-hexahydropyrrolizin-8-yl]methoxy]-1,3,5-triazin-2-yl]spiro[5,6-dihydrocyclopenta[b]thiophene-4,3′-azetidine]-3-carbonitrile], the IC50 lay in the range of 100 to 1000 nM in test [1] and 1 to 20 µM in test [2] (setting [3]).

Take `CC(c1ccc[n+]([O-])c1)N(C)c1nc(OC[C@@]23CCCN2C[C@H](F)C3)nc(N2CC3(C2)SCc2sc(N)c(C#N)c23)n1` (stereo partly drawn) [Compound 224, 3-(1-((4-(2′-amino-3′-cyano-6′H-spiro[azetidine-3,4′-thieno[3,4-b]thiophen]-1-yl)-6-(((2R,7aS)-2-fluorotetrahydro-1H-pyrrolizin-7a(5H)-yl)methoxy)-1,3,5-triazin-2-yl)(methyl)amino)ethyl)pyridine 1-oxide]: the figures for the IC50 in test [1] and in test [2] (setting [3]) were 10 to 100 nM and 0.01 to 0.1 µM, respectively.

`N#Cc1c(N)sc2c1C1(CN(c3nc(OC[C@@]45CCCN4C[C@H](F)C5)nc(N4CCC5(CCN5C(=O)n5cncn5)C4)n3)C1)SC2` (stereo partly drawn) [Compound 248, 2-amino-1′-[4-[[(2R,8S)-2-fluoro-1,2,3,5,6,7-hexahydropyrrolizin-8-yl]methoxy]-6-[1-(1,2,4-triazole-1-carbonyl)-1,7-diazaspiro[3.4]octan-7-yl]-1,3,5-triazin-2-yl]spiro[6H-thieno[2,3-c]thiophene-4,3′-azetidine]-3-carbonitrile] came in with an IC50 in test [1] of 1000 to 20000 nM.

For the compound `N#Cc1c(N)sc2c1C1(CN(c3nc(OC[C@@]45CCCN4C[C@H](F)C5)nc(N4[C@H]5CC[C@@H]4C(=O)C5)n3)C1)SC2` [Compound 280, 2-amino-1′-[4-[[(2R,8S)-2-fluoro-1,2,3,5,6,7-hexahydropyrrolizin-8-yl]methoxy]-6-(2-oxo-7-azabicyclo[2.2.1]heptan-7-yl)-1,3,5-triazin-2-yl]spiro[6H-thieno[3,4-b]thiophene-4,3′-azetidine]-3-carbonitrile], the IC50 in test [2] (setting [3]) was in the range of 0.01 to 0.1 µM.

The compound `C[C@@]1(O)CCCN(c2nc(OC[C@@]34CCCN3[C@H](COc3cc(C(F)(F)F)ncn3)CC4)nc(N3CC4(C3)SCc3sc(N)c(C#N)c34)n2)C1` (racemic) [Compound 253, 2-amino-1′-[4-[(3R)-3-hydroxy-3-methyl-1-piperidyl]-6-[[(3SR,8SR)-3-[[6-(trifluoromethyl)pyrimidin-4-yl]oxymethyl]-1,2,3,5,6,7-hexahydropyrrolizin-8-yl]methoxy]-1,3,5-triazin-2-yl]spiro[6H-thieno[3,4-b]thiophene-4,3′-azetidine]-3-carbonitrile] displayed an IC50 in test [1] of under 10 nM.

Regarding `CC1(O)CCCN(c2nc(OCC34CCCN3C(COc3cc(C(F)(F)F)ncn3)CC4)nc(N3CC4(C3)SCc3sc(N)c(C#N)c34)n2)C1` (single isomer, unassigned) [Compound 256B], the IC50 in test [2] (setting [3]) is under 0.01 µM.

As for `N#Cc1c(N)sc2c1C1(CCC2)CN(c2nc(OCC3(CN4CCOCC4)CC3)nc(N3CCC[C@]4(C3)NC(=O)NC4=O)n2)C1` [Compound 6, 2-amino-1′-[4-[[1-(morpholinomethyl)cyclopropyl]methoxy]-6-[(5R)-2,4-dioxo-1,3,9-triazaspiro[4.5]decan-9-yl]-1,3,5-triazin-2-yl]spiro[6,7-dihydro-5H-benzothiophene-4,3′-azetidine]-3-carbonitrile], the IC50 in test [2] (Table 2, read-out: NEA-G12D (uM) IC50) is 0.01 to 0.1 µM.

In test [1], `N#Cc1c(N)sc2c1C1(CC2)CN(c2nc(OC[C@@]34CCCN3C[C@H](F)C4)nc(O[C@@H]3COC[C@H]3O)n2)C1` (racemic) [Compound 80, 2-amino-1′-[4-[[(2R,8S)-2-fluoro-1,2,3,5,6,7-hexahydropyrrolizin-8-yl]methoxy]-6-[rac-(3R,4R)-4-hydroxytetrahydrofuran-3-yl]oxy-1,3,5-triazin-2-yl]spiro[5,6-dihydrocyclopenta[b]thiophene-4,3′-azetidine]-3-carbonitrile; 2,2,2-trifluoroacetic acid] returned an IC50 of 1000 to 20000 nM.
